Values of other authors in patent US20110201657A1, “AMIDE SUBSTITUTED INDAZOLE AND BENZOTRIAZOLE DERIVATIVES AS POLY(ADP-RIBOSE)POLYMERASE (PARP) INHIBITORS” (Istituto di Ricerche di Biologia Molecolare P. Angeletti SpA, priority 2006, published 2011).

Test system: infarct size in the heart
Conditions: rabbits

| Structure (SMILES) | reduction in infarct size (single injection 1 mg/kg) | reduction in infarct size in the heart (single injection 10 mg/kg, one minute before occlusion or before reperfusion) |
| --- | --- | --- |
| Oc1cccc2c(O)nccc12 [1,5-dihydroxyisoquinoline] | 38-48% | – |
| NC(=O)c1cccc(N)c1 [3-amino-benzamide] | – | 32-42% |
